Values belong to the compound of their own block, whether it stands above or below them.
How the values were obtained:
ABUTH (velvetleaf) = assay: Greenhouse herbicidal action, postemergence treatment; format: in vivo; conditions: 100 = complete destruction, 0 = no damage
Text: (§1) The herbicidal action of the 2-phenylpyridazin-3-one compounds of the formula I could be shown by means of greenhouse experiments: […]
(§2) The cultivation containers used were plastic pots containing loamy sand with approximately 3.0% of humus as a substrate. The seeds of the test plants were sown separately according to species.
(§3) For the purpose of postemergence treatment, the test plants were first raised up to a growth height of 3 to 15 cm, depending on growth form, and then treated with the active compounds suspended or emulsified in water. For this, the test plants were either sown directly and raised in the same containers or they were first raised separately as seedlings and transplanted into the experimental containers a few days before the treatment. The application rate for the postemergence treatment was 15.6 or 7.8 g of a.s./ha.
(§4) The plants were kept species-specifically at temperature from 10-25° C. or 20-35° C. The experimental period extended over 2 to 4 weeks. During this time, the plants were tended, and their reaction to the individual treatments was assessed.
(§5) Assessment was carried out on a scale from 0 to 100. 100 here means no emergence of the plants or complete destruction of at least the above-ground parts and 0 means no damage or normal course of growth.
(§6) The plants used in the greenhouse experiments were made up of the following species:
(§7) The compound Ia.4 from Example 1 and the compound of Example 1-637 (X=H), disclosed in WO 97/07104, were tested in the postemergence process in the manner described.

[1] = system: BIDPI (hairy beggarticks); assay: as above; format: in vivo; conditions: 100 = complete destruction, 0 = no damage
Text: as §1, §2, §3, §4, §5, §6, §7

COMBE (dayflower) = assay: as above; format: in vivo; conditions: 100 = complete destruction, 0 = no damage
Text: as §1, §2, §3, §4, §5, §6, §7

GALAP (catchweed) = assay: as above; format: in vivo; conditions: 100 = complete destruction, 0 = no damage
Text: as §1, §2, §3, §4, §5, §6, §7

IPOSS (morning glory) = assay: as above; format: in vivo; conditions: 100 = complete destruction, 0 = no damage
Text: as §1, §2, §3, §4, §5, §6, §7

[2] = application rate 7.8 g/ha (a.s.)
[3] = application rate 15.6 g/ha (a.s.)

SMILES: CCOC(=O)C(Cl)=Cc1cc(-n2ncc(C(F)(F)F)c(C)c2=O)ccc1Cl [Ia.4, 2-[4-Chloro-3-(2-ethoxycarbonyl-2-chloroethen-1-yl)phenyl]-4-methyl-5-trifluoromethyl-2H-pyridazin-3-one]
Herbicidal action, assessment on a scale from 0 to 100 (ABUTH (velvetleaf); [2]): 100
Herbicidal action, assessment on a scale from 0 to 100 (ABUTH (velvetleaf); [3]): 100
Herbicidal action, assessment on a scale from 0 to 100 [1, 2]: 80
Herbicidal action, assessment on a scale from 0 to 100 [1, 3]: 98
Herbicidal action, assessment on a scale from 0 to 100 (COMBE (dayflower); [2]): 100
Herbicidal action, assessment on a scale from 0 to 100 (COMBE (dayflower); [3]): 100
Herbicidal action, assessment on a scale from 0 to 100 (GALAP (catchweed); [2]): 100
Herbicidal action, assessment on a scale from 0 to 100 (GALAP (catchweed); [3]): 100
Herbicidal action, assessment on a scale from 0 to 100 (IPOSS (morning glory); [2]): 100
Herbicidal action, assessment on a scale from 0 to 100 (IPOSS (morning glory); [3]): 100

SMILES: COCCOC(=O)C(Cl)=Cc1cc(-n2ncc(C(F)(F)F)c(C)c2=O)ccc1Cl [Ia.12, 2-{4-Chloro-3-[2-(2-methoxyethoxy)carbonyl-2-chloroethen-1-yl]phenyl}-4-methyl-5-trifluoromethyl-2H-pyridazin-3-one]
melting point: 60 to 62 °C

SMILES: C#CCOC(=O)C(Cl)=Cc1cc(-n2ncc(C(F)(F)F)c(C)c2=O)ccc1Cl [Ia.42, 2-[4-Chloro-3-(2-propargyloxycarbonyl-2-chloroethen-1-yl)phenyl]-4-methyl-5-trifluoromethyl-2H-pyridazin-3-one]
melting point: 81 to 82 °C

Now from value to compound:

melting point: 78 to 79 °C
SMILES: Cc1c(C(F)(F)F)cnn(-c2ccc(Cl)c(C=C(Cl)C(=O)OCCC#N)c2)c1=O [Ia.16, 2-{4-Chloro-3-[2-(2-cyanoethoxy)carbonyl-2-chloroethen-1-yl]phenyl}-4-methyl-5-trifluoromethyl-2H-pyridazin-3-one]

melting point: 62 to 63 °C
SMILES: C=CCOC(=O)C(Cl)=Cc1cc(-n2ncc(C(F)(F)F)c(C)c2=O)ccc1Cl [Ia.41, 2-[4-Chloro-3-(2-allyloxycarbonyl-2-chloroethen-1-yl)phenyl]-4-methyl-5-trifluoromethyl-2H-pyridazin-3-one]
